Laboratory results reported in paper PMC6273213, “Novel Triazole-Quinoline Derivatives as Selective Dual Binding Site Acetylcholinesterase Inhibitors” (Molecules, 2016).
Structures can show the parent of a compound that is named as a salt.

Key:
hAChE = molecular target: T1, hAChE (Homo sapiens, UniProt P22303); assay: biochemical; conditions: for inhibition at 100 µM: 100 μM compound, substrate ACThI; for inhibition at 100 µM / IC50: human recombinant hAChE; for IC50: at least six concentrations, read-out: IC50 ± SEM (μM) hAChE; for Ki: steady-state inhibition constant from replots of reciprocal plots, read-out: Ki ± SEM (μM) hAChE; for Mechanism Type hAChE: Lineweaver-Burk plots
T1 construct: purchased Sigma-Aldrich; host or cells: HEK 293 cells
Procedure: (§1) Buffer components and all of the chemicals used were all analytical grade materials, and were obtained from Sigma, Merck (Darmstadt, Germany), Synth (São Paulo, Brazil) or Acros (Geel, Belgium). The water used in all of the preparations was purified with a Millipore Milli-Q® system (Millipore, São Paulo, Brazil).
(§2) The ligand assays were carried out in accordance with the literature, albeit with some modifications. Briefly, the assays were carried out using a 96-well microplate with an Elisa microplate reader. To a final volume of 250 µL, each well was filled with: 125 µL of Ellman’s reagent (3 mM in […] phosphate buffer pH 7.4); 50 µL of buffer TRIS (50 mM, pH 8.0); 25 µL of enzyme solution at the final concentration 0.28 U/mL (in […] phosphate buffer pH 7.4); 25 µL of the ACThI (15 mM) for AChE and 25 µL of the BCThI (15 mM) for BChE; and 25 µL of each inhibitor sample (1 mM), final concentration at 100 µM. The microplate was shaken for 10 s followed by reading the absorbance at 412 nm at 30 s intervals for two minutes. The negative control (compound and absence of ACThI) and a positive control (ACThI and absence of compound) were carried out.
(§3) The assays were carried out in duplicate.
IC50 values were independently determined by performing rate measurements for at least six concentrations of the target inhibitor. The nonlinear regression parameters were calculated, and the IC50 was extrapolated.

hBChE = molecular target: T2, hBChE (Homo sapiens, UniProt P06276); assay: biochemical; conditions: 100 μM compound; substrate BCThI
T2 construct: hBChE EC 3.1.1.8, 50 units mg^−1 from human erythrocytes; purchased Sigma-Aldrich; host or cells: human erythrocytes
Procedure: as §1, §2, §3

T1 sequence (P22303 32-614): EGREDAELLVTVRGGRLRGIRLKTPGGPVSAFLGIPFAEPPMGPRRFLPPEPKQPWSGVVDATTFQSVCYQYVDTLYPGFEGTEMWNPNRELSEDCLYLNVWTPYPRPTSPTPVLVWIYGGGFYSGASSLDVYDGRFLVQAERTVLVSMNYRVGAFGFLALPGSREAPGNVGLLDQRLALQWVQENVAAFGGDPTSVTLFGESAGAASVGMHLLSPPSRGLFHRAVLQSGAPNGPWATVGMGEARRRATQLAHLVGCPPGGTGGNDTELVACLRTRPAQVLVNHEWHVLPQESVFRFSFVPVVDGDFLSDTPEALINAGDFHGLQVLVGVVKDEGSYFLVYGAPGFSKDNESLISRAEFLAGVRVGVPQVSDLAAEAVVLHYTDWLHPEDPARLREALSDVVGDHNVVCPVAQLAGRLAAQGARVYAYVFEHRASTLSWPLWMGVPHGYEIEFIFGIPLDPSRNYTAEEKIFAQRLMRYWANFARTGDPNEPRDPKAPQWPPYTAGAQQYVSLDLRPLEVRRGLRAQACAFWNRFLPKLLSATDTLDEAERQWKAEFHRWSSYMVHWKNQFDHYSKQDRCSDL
T2 sequence (P06276 29-602): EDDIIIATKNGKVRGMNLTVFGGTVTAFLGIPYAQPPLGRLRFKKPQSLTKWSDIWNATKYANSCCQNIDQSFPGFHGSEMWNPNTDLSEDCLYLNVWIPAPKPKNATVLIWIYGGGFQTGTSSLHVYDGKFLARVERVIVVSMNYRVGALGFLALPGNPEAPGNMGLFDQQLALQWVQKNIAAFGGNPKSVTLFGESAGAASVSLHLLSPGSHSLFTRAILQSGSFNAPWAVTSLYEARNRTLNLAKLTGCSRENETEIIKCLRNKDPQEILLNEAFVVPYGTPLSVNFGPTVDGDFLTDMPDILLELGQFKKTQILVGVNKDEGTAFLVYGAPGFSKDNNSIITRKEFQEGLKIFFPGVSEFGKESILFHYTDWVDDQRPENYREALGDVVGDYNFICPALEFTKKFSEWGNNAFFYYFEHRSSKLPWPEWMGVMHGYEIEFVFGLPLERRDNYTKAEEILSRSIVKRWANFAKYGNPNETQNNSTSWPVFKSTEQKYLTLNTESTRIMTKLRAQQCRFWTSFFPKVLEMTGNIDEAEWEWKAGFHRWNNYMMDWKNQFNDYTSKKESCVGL

In the case of COc1cc2c(cc1Cl)C/C(=C\c1ccc(-c3cn(-c4ccnc5ccccc45)nn3)cc1)C2=O [3c, (E)-5-Chloro-6-methoxy-2-(4-(1-(quinolin-4-yl)-1H-1,2,3-triazol-4-yl)benzylidene)-2,3-dihydro-1H-inden-1-one], the inhibition at 100 µM (hAChE) is reported as 5.4% and the inhibition at 100 µM (hBChE) is reported as 6.2%.

COc1cc2c(cc1OC)C(=O)/C(=C/c1ccc(-c3cn(-c4ccnc5ccccc45)nn3)cc1)C2 [3a, (E)-5,6-Dimethoxy-2-(4-(1-(quinolin-4-yl)-1H-1,2,3-triazol-4-yl)benzylidene)-2,3-dihydro-1H-inden-1-one] showed an inhibition at 100 µM (hAChE) of 29%, an IC50 (hAChE) of 128 ± 25 µM and a Ki (hAChE) of 185 ± 29 µM. For the same compound, the inhibition at 100 µM (hBChE) was 0%.

With COc1ccc2c(c1)C(=O)/C(=C/c1ccc(-c3cn(-c4ccnc5ccccc45)nn3)cc1)C2 [3h, (E)-6-Methoxy-2-(4-(1-(quinolin-4-yl)-1H-1,2,3-triazol-4-yl)benzylidene)-2,3-dihydro-1H-inden-1-one] the inhibition at 100 µM (hAChE) was 55.7%, the “Mechanism Type hAChE” value (hAChE) was “mixed-type” and the IC50 (hAChE) was 109 µM. For the same compound, the Ki (hAChE) was 245 ± 70 µM and the inhibition at 100 µM (hBChE) was 0%.

For COc1ccc2c(c1)C/C(=C\c1ccc(-c3cn(-c4ccnc5ccccc45)nn3)cc1)C2=O [3g, (E)-5-Methoxy-2-(4-(1-(quinolin-4-yl)-1H-1,2,3-triazol-4-yl)benzylidene)-2,3-dihydro-1H-inden-1-one], the inhibition at 100 µM (hAChE) was 48.1%, the “Mechanism Type hAChE” value (hAChE) was “mixed-type” and the IC50 (hAChE) was 114 ± 10 µM. The Ki (hAChE) was 220 ± 60 µM and the inhibition at 100 µM (hBChE) was 0.2%.

For Cc1ccc2c(c1)C(=O)/C(=C/c1ccc(-c3cn(-c4ccnc5ccccc45)nn3)cc1)C2 [3d, (E)-6-Methyl-2-(4-(1-(quinolin-4-yl)-1H-1,2,3-triazol-4-yl)benzylidene)-2,3-dihydro-1H-inden-1-one], the inhibition at 100 µM (hAChE) was 9.1% and the inhibition at 100 µM (hBChE) was 0%.

With O=C1C(=Cc2ccc(-c3cn(-c4ccnc5ccccc45)nn3)cc2)Cc2cc3c(cc21)OCO3 [3b, (E)-5,6-Methilenedioxy-2-(4-(1-(quinolin-4-yl)-1H-1,2,3-triazol-4-yl)benzylidene)-2,3-dihydro-1H-inden-1-one] the inhibition at 100 µM (hAChE) was 0% and the inhibition at 100 µM (hBChE) was 5.2%.

COc1cc2c(cc1OC)C(=O)C(CC1CCN(Cc3ccccc3)CC1)C2 (stereo not shown) [Donepezil, donepezil hydrochloride monohydrate, reference compound] gave an inhibition at 100 µM (hBChE) of 11.1%.

O=C1/C(=C/c2ccc(-c3cn(-c4ccnc5ccccc45)nn3)cc2)Cc2ccc(Cl)cc21 [3e, (E)-6-Chloro-2-(4-(1-(quinolin-4-yl)-1H-1,2,3-triazol-4-yl)benzylidene)-2,3-dihydro-1H-inden-1-one] showed an inhibition at 100 µM (hAChE) of 37.7%, an IC50 (hAChE) of 147 ± 15 µM and a Ki (hAChE) of 530 ± 150 µM. It also gave an inhibition at 100 µM (hBChE) of 0%.
